Counter-ions that a name gives are not always drawn. Like-named read-outs stand apart in the source and are kept apart here.
Tests used:
[1] = tested on: 5-HT7 receptor; details: 5-HT7 receptor from T. castaneum; ref [36]; cited from earlier work
[2] = tested on: Msep5-HT7L receptor; test: cAMP assay, agonist activation of Msep5-HT7L in stably transfected HEK293 cells; format: cell-based, Mythimna separata; set-up: Emax: dose or concentration left out as unconfirmed; details: ratio of EC50 values
Protocol: (§1) HEK-293 cells were cultured in D-MEM (Gibco BRL, Gaithersburg, MD, USA) supplemented with 10% FBS (Gibco BRL, Gaithersburg, MD, USA) at 37 °C and 5% CO2. Four microgram recombinant plasmids with 10 μL of lipofectamine 2000 (Invitrogen, Carlsbad, CA, USA) were introduced into exponentially growing HEK 293 cells. The 0.8 mg/mL antibiotic G418 (Sigma, St. Louis, MO, USA) was added to the medium to select for cells that were stably expressed the Msep5-HT7 receptors. After fourteen days of G418 selection, three G418-resistant colonies were trypsinized in cloning cylinders and transferred to 12-well plastic plates for expansion.
(§2) Intracellular cAMP concentrations were measured as previously described. Briefly, when cells were cultured for 2 days to the concentration of 1 × 10^6 cells/mL, culture media were removed and the cells were washed two times with cold PBS (pH 7.4), then the cells were preincubated in 450 μL of Dulbecco’s phosphate-buffered solution (DPBS) containing 100 μM phosphodiesterase inhibitor 3-isobutyl-1-methylxanthine (IBMX) for 20 min at room temperature. After the preincubation, 50 μL of DPBS, containing various concentrations of reagents, was added into the stable transfected cells for incubation for 30 min at 37 °C. The cells were washed three times with cold PBS (pH 7.4) and then lysed in 250 μL of cold cell lysis buffer by re-freezing. The cell debris was removed by centrifugation at 600× g for 10 min at 4 °C. The amount of intracellular cAMP extracted from harvested supernatant was determined using an ELISA reagent (R&D Systems, Minneapolis, MN, USA). Each measurement was performed in duplicate, and three independent assays were carried out for each reagent and concentration tested.

[3] = biological target: T1, Msep5-HT7L receptor (Mythimna separata, UniProt A0AAD7YHG5); test: as above; format: cell-based; set-up: Emax: dose or concentration left out as unconfirmed; details: for effect on intracellular cAMP levels: 10 μM, HEK293 cells expressing Msep5-HT7L; for Emax: HEK293, read-out: activation compared with maximum cAMP stimulation by same concentration of 5-HT
T1 sequence (A0AAD7YHG5 entry or part of it): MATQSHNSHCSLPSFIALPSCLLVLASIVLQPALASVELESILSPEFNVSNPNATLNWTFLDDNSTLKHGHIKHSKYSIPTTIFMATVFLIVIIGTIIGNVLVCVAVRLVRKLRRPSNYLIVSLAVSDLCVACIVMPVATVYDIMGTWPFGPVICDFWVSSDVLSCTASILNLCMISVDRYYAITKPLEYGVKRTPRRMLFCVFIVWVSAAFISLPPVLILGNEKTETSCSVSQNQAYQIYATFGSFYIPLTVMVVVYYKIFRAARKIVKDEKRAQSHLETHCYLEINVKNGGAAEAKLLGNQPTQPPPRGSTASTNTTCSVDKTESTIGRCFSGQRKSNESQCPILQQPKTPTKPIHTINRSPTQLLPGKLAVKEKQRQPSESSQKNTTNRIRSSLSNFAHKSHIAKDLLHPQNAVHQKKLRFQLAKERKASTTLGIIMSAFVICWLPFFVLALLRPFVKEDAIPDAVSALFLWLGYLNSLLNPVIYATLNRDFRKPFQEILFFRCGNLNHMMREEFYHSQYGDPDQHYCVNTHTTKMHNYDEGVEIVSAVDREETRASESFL
Protocol: as §1, §2

[4] = biological target: T2, Msep5-HT7S receptor (Mythimna separata, UniProt A0AAD7YHG5, DEL320-414); test: cell-based; format: cell-based; set-up: Emax: dose or concentration left out as unconfirmed; details: for Emax: HEK293, read-out: activation compared with maximum cAMP stimulation by 5-HT; for fold higher agonist potency against Msep5-HT7S than Msep5-HT7L: ratio of EC50 values
T2 sequence (A0AAD7YHG5 entry or part of it DEL320-414): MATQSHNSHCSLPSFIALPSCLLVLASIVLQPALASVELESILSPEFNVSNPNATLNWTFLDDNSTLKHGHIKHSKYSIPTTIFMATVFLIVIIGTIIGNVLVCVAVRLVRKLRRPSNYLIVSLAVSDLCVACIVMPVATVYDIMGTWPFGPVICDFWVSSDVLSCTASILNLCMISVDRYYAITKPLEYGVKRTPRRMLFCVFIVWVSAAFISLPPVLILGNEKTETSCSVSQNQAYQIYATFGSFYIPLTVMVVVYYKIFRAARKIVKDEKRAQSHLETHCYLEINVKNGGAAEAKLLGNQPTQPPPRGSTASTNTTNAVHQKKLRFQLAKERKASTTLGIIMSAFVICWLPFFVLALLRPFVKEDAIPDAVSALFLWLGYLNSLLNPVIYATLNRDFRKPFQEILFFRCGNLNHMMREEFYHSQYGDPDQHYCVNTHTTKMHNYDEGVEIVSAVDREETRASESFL
Protocol: as §1, §2

[5] = tested on: Msep5-HT7L receptor; test: cAMP assay, antagonist block of 5-HT-induced response in HEK293 cells expressing Msep5-HT7L; format: cell-based; details: for decrease of 5-HT induced response: 40 μM antagonist (8-fold) with 5 μM 5-HT, range stated for all antagonists and both isoforms; for antagonist potency or efficacy, Msep5-HT7L compared with Msep5-HT7S: inhibition of 5-HT-induced cAMP production, based on 95% fiducial limits
Protocol: as §1, §2

[6] = biological target: T1, Msep5-HT7L receptor; test: as above; format: cell-based; details: against 5 μM 5-HT
Protocol: as §1, §2

[7] = tested on: 5-HT7 receptor; test: literature pharmacology of C. vicina 5-HT7 receptor; details: 5-HT7 receptor from C. vicina vs the two Msep5-HT7 isoforms
[8] = tested on: 5-HT7 receptor; details: 5-HT7 receptor from T. castaneum vs the two Msep5-HT7 isoforms
[9] = biological target: T2, Msep5-HT7S receptor; test: cAMP assay, antagonist block of 5-HT-induced response in HEK293 cells expressing Msep5-HT7S; format: cell-based; details: for inhibition at 40 µM: HEK293, read-out: decrease of 5-HT induced response
Protocol: as §1, §2

[10] = biological target: 5-HT7 receptor; details: 5-HT7 receptor from C. vicina; ref [28],[36],[46]; cited from earlier work
[11] = tested on: larvae of Mythimna separata; set-up: method as in PMID 20000410; details: ref [22]; cited from earlier work
[12] = tested on: 5-HT7 receptor; details: 5-HT7 receptor from A. mellifera; ref [17],[27]; cited from earlier work
[13] = biological target: 5-HT1 receptor; set-up: method as in PMID 23741451, PMID 16945110; details: 5-HT1 receptor from T. castaneum; ref [17],[27]; cited from earlier work
[14] = EC50, 5-HT7L, cAMP production, HEK-293 cells
[15] = logEC50 (Mean ± SEM), 5-HT7L, cAMP production, HEK-293 cells, given as negative log value
[16] = 10 μM, HEK293 cells expressing Msep5-HT7S
[17] = EC50, 5-HT7S, cAMP production, HEK-293 cells
[18] = logEC50 (Mean ± SEM), 5-HT7S, cAMP production, HEK-293 cells, given as negative log value
[19] = logIC50 (Mean ± SEM), 5-HT7L, given as negative log value
[20] = IC50, 5-HT7S, against 5 μM 5-HT, HEK-293 cells
[21] = logIC50 (Mean ± SEM), 5-HT7S, against 5 μM 5-HT, given as negative log value

CCCN(CCC)C1CCc2cccc(O)c2C1 (racemic) [8-OH-DPAT, (±)-8-hydroxy-2-(dipropylamino) tetralin hydrobromide]
efficacy fold lower than 5-HT [1]: about 2 fold | potency fold lower than 5-HT [1]: more than 190 fold | fold higher agonist potency against Msep5-HT7L than Msep5-HT7S [2]: 2.4 fold | effect on intracellular cAMP levels [3]: activated | EC50 [3, 14]: 10.1 µM | Emax [3]: < 30% | EC50 [3, 15]: 10 µM | effect on intracellular cAMP levels [4, 16]: only αm-5-HT significantly increased cAMP levels | EC50 [4, 17]: 24.8 µM | Emax [4]: < 30% | EC50 [4, 18]: 24.5 µM

O=C(c1ccc(F)cc1)C1CCN(CCn2c(=O)[nH]c3ccccc3c2=O)CC1 [Ketanserin]
decrease of 5-HT induced response [5]: 33–60% | antagonist potency or efficacy, Msep5-HT7L compared with Msep5-HT7S [5]: higher antagonistic activity | IC50 ([6]; IC50, 5-HT7L, HEK-293 cells): 46.9 µM | IC50 [6, 19]: 46.8 µM | fold higher inhibitory potency than against Msep5-HT7L and Msep5-HT7S [7]: 20- to 50 fold | fold higher inhibitory potency than against Msep5-HT7L and Msep5-HT7S [8]: 20- to 50 fold | inhibition at 40 µM [9]: 33 to 60% | IC50 [9, 20]: 84.9 µM | IC50 [9, 21]: 85.1 µM | IC50 [1]: 1.95 µM | IC50 [10]: 1.5 µM

Cc1cccc(S(=O)(=O)N(C)[C@H](C)CCN2CCC(C)CC2)c1 [SB-258719]
decrease of 5-HT induced response [5]: 33–60% | antagonist potency or efficacy, Msep5-HT7L compared with Msep5-HT7S [5]: no significant differences | IC50 ([6]; IC50, 5-HT7L, HEK-293 cells): 55.3 µM | IC50 [6, 19]: 55 µM | inhibition at 40 µM [9]: 33 to 60% | IC50 [9, 20]: 64 µM | IC50 [9, 21]: 64.6 µM

COc1ccc2[nH]cc(CCN)c2c1 [5-MT, 5-methoxytryptamine]
efficacy fold lower than 5-HT [1]: about 2 fold | potency fold lower than 5-HT [1]: more than 190 fold | effect on intracellular cAMP levels [3]: activated | EC50 [3, 14]: 20.9 µM | Emax [3]: ~69% | EC50 [3, 15]: 20.9 µM | effect on intracellular cAMP levels [4, 16]: only αm-5-HT significantly increased cAMP levels | EC50 [4, 17]: 19.4 µM | Emax [4]: ~35% | EC50 [4, 18]: 19.5 µM | fold higher agonist potency against Msep5-HT7S than Msep5-HT7L [4]: roughly equivalent

Nc1ccc(CCN2CCN(c3cccc(C(F)(F)F)c3)CC2)cc1 [PAPP, 1-[(4-aminophenyl)ethyl]-4-[3-(trifluoromethyl)phenyl] piperazine]
effect on larvae [11]: inhibit the growth or kill the larvae

CC1CCN(CC[C@H]2CCCN2S(=O)(=O)c2cccc(O)c2)CC1 [SB-269970, (R)-3-(2-(2-(4-methylpiperidin-1-yl)ethyl)pyrrolidine-1-sulfonyl) phenol]
decrease of 5-HT induced response [5]: 33–60% | antagonist potency or efficacy, Msep5-HT7L compared with Msep5-HT7S [5]: no significant differences | IC50 ([6]; IC50, 5-HT7L, HEK-293 cells): 70.4 µM | IC50 [6, 19]: 70.8 µM | inhibition at 40 µM [9]: 33 to 60% | IC50 [9, 20]: 67.8 µM | IC50 [9, 21]: 67.6 µM | antagonistic effect [12]: poor antagonistic effect | IC50 [13]: 205 µM

CC(N)Cc1c[nH]c2ccc(O)cc12.O=C(O)/C=C\C(=O)O (stereo not drawn) [αm-5-HT, α-methylserotonin maleate]
efficacy fold lower than 5-HT [1]: about 2 fold | potency fold lower than 5-HT [1]: more than 190 fold | effect on intracellular cAMP levels [3]: activated | logEC50 (Mean ± SEM) ([3]; 5-HT7L, cAMP production, HEK-293 cells, given as negative log value): −4.86 ± 0.04 | EC50 ([3]; 5-HT7L, cAMP production, HEK-293 cells, read-out: EC50): 13.9 µM | activation compared with maximum cAMP stimulation by same concentration of 5-HT ([3]; highest concentration 1 mM, Msep5-HT7L): about 69% | activation compared with maximum cAMP stimulation by 5-HT [4]: about 35% | effect on intracellular cAMP levels [4, 16]: significantly increased cAMP levels | logEC50 (Mean ± SEM) ([4]; 5-HT7S, cAMP production, HEK-293 cells, given as negative log value): −5.23 ± 0.29 | EC50 ([4]; 5-HT7S, cAMP production, HEK-293 cells, read-out: EC50): 5.9 µM | fold higher agonist potency against Msep5-HT7S than Msep5-HT7L [4]: 2.3 fold

CSc1ccc2c(c1)C(N1CCN(C)CC1)Cc1ccccc1S2 (centres unmarked) [Methiothepin, methiothepin mesylate]
decrease of 5-HT induced response [5]: 33–60% | antagonist potency or efficacy, Msep5-HT7L compared with Msep5-HT7S [5]: no significant differences | IC50 ([6]; IC50, 5-HT7L, HEK-293 cells): 87.2 µM | IC50 [6, 19]: 87.1 µM | inhibition at 40 µM [9]: 33 to 60% | IC50 [9, 20]: 62.9 µM | IC50 [9, 21]: 63.1 µM

COc1ccccc1N1CCN(CCN(C(=O)C2CCCCC2)c2ccccn2)CC1 [WAY-100635]
decrease of 5-HT induced response [5]: 33–60% | antagonist potency or efficacy, Msep5-HT7L compared with Msep5-HT7S [5]: higher antagonistic activity | IC50 ([6]; 5-HT7L, HEK-293 cells, read-out: IC50): 36.1 µM | logIC50 (Mean ± SEM) ([6]; 5-HT7L, given as negative log value): −4.44 ± 0.04 | IC50 ([9]; 5-HT7S, against 5 μM 5-HT, HEK-293 cells, read-out: IC50): 70.3 µM | logIC50 (Mean ± SEM) ([9]; 5-HT7S, against 5 μM 5-HT, given as negative log value): −4.15 ± 0.02 | IC50 [1]: 76.8 µM

NCCc1ccc(O)c(O)c1 [dopamine, dopamine hydrochloride]
effect on intracellular cAMP levels [3]: only 5-HT significantly increased cAMP levels | effect on intracellular cAMP levels [4]: only 5-HT significantly increased cAMP levels

NCCc1ccc(O)cc1 [tyramine, tyramine hydrochloride]
effect on intracellular cAMP levels [3]: only 5-HT significantly increased cAMP levels | effect on intracellular cAMP levels [4, 16]: only 5-HT significantly increased cAMP levels

NCC(O)c1ccc(O)cc1 (racemic) [octopamine, (±)-octopamine hydrochloride]
effect on intracellular cAMP levels [3]: only 5-HT significantly increased cAMP levels | effect on intracellular cAMP levels [4, 16]: only 5-HT significantly increased cAMP levels

NCCc1c[nH]c2ccc(O)cc12 [5-HT, serotonin hydrochloride]
effect on intracellular cAMP levels [3]: significantly increased cAMP levels | effect on intracellular cAMP levels [4, 16]: significantly increased cAMP levels

— publication PMC9820646, “Identification and Pharmacological Characterization of Two Serotonin Type 7 Receptor Isoforms from Mythimna separata” (International Journal of Molecular Sciences, 2022)
